The source of these data is ChEMBL document CHEMBL1201862, “PubChem BioAssay data set” (2004).

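Five concentrations, 48 hours, 96-well plates. Here, GI50 denotes the concentration required for 50% inhibition of growth.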 The source made the active and inactive calls. Cut-off read from the data, not from the text of the source: active = GI50 up to about 1.1 µM and inactive = higher.

Test in all cases: NCI anticancer screen, dose series, 48 h
Assay [1] deals with DMS-114.
Assay [2] relates to DMS-273.
Assay [3] concerns HOP-18.
Assay [4] concerns M19-MEL.
The subject of assay [5] is RXF 631.
Assay [6] deals with BT-549.
In assay [7] the test system is MDA-MB-231.
The subject of assay [8] is MDA-MB-435.
Assay [9] has as its system NCI/ADR-RES.

Consider `CC(C)=CC(=O)N1CCN(C(=O)C=C(C)C)CC1`, for which the GI50 in assay [1], in assay [2], in assay [3], in assay [4] and in [5] was > 100 µM (inactive) throughout.
As to `CC(=O)OC1COC(N2CCc3ccccc32)C(OC(C)=O)C1OC(C)=O` (stereo not given), the GI50 in assay [1] is > 91.6 µM (inactive); in assay [2], > 100 µM (inactive); in assay [3] it was > 100 µM (inactive); in assay [4], > 100 µM (inactive); in assay [5], > 100 µM (inactive).
For the molecule `CN(C)CC/C(=N\Nc1ccc(Cl)c(Cl)c1)c1ccccc1`, the GI50 in assay [1] is 1.83 µM (inactive); in assay [2], 1.75 µM (inactive); in [3], 1.52 µM (inactive); in [4], 1.89 µM (inactive).
On to `C[n+]1c2ccccc2c(NCC(=O)O)c2ccccc21`, for which the GI50 in assay [1], in assay [2], in assay [3] and in assay [4] was > 100 µM (inactive) in each case.
For `O=C1N=CN=C2C=CC(Cl)=C(I)C12` (stereo not given), the GI50 in [1] is 84.7 µM (inactive); in [2], 73.8 µM (inactive); in assay [4] it was > 100 µM (inactive).
On to `N#C/C(=C\c1cccc(O)c1)C(N)=O`, for which the GI50 in assay [1], in [2], in [4] and in [5] was > 100 µM (inactive) each time.
In the case of `COC(=O)C1=Cc2c(OC)cc(OC)c(OC)c2[C@H](c2cc(OC)c(OC)cc2OC)C1C(=O)OC` (stereo not given in full), the GI50 in [1] was > 100 µM (inactive); in [2], 42.7 µM (inactive); in assay [4] it was > 100 µM (inactive); in assay [5], > 100 µM (inactive).
`Oc1cc(-c2ccccn2)nc2cc(F)ccc12`: the values for the GI50 in [3], in assay [4] and in assay [5] were 40.4 µM (inactive), 56.6 µM (inactive) and > 100 µM (inactive), respectively.
Regarding `CC(=O)O[C@H]1CCC2[C@@H]3CCC4=C(O)C(=O)C(C#N)C[C@]4(C)C3CC[C@@]21C` (stereo not given in full), the values for the GI50 in [1], in [2] and in assay [4] were 25.6 µM (inactive), 19.4 µM (inactive) and 45.2 µM (inactive), respectively.
In the case of `Cc1c(CCO)c(O)n2c(nc3ccccc32)c1C#N`, the GI50 in [1] is 44.5 µM (inactive); in [2] it was 63.2 µM (inactive); in assay [3] it was 47.5 µM (inactive); in assay [4], > 100 µM (inactive).
Turning to `COc1ccc(N2C(=O)[C@@H]3[C@H](C2=O)c2[nH]c4ccccc4c2C2CCC(C(C)(C)C)C[C@@H]23)cc1` (stereo not given in full), the GI50 in assay [2] is 41.8 µM (inactive); in [4], 46.9 µM (inactive).
Turning to `O=[N+]([O-])c1ccc(C(Cl)C(Cl)c2ccc(C(Cl)C(Cl)c3ccc([N+](=O)[O-])cc3[N+](=O)[O-])cc2)c([N+](=O)[O-])c1` (stereo not given), the GI50 in assay [1] was 1.42 µM (inactive); in assay [2], 1.47 µM (inactive); in assay [4], 1.33 µM (inactive); in [5], 1.57 µM (inactive).
For `COc1cc(CN[C@H]2CCc3cc(OC)c(OC)c(OC)c3-c3ccc(SC)c(=O)cc32)cc(OC)c1`, the GI50 in assay [1] is 0.0222 µM (active); in assay [2], 0.0341 µM (active); in assay [4], 0.0308 µM (active); in [5], < 0.01 µM (active).
As for `O=C(c1ccccc1)c1cccc(C(=O)c2ccccc2)c1`, the GI50 was 43.4 µM (inactive) in assay [1], > 100 µM (inactive) in assay [2], > 100 µM (inactive) in assay [3] and > 100 µM (inactive) in assay [4].
For `CC1=C(C(=O)O)N2C(=O)[C@@H](NC(=O)C(c3ccc(O)cc3)N3CSC(=S)N(C(C)C)C3)C2SC1` (stereo not given in full), the GI50 in [1], in [2], in assay [3] and in assay [4] was > 100 µM (inactive) in each case.
For `COC(=O)[C@]1(C)CCC[C@@]2(C)C1CCC1=CC3(C(C)C)CCC12OO3` (stereo not given in full), the GI50 is 32.2 µM (inactive) in assay [4] and > 100 µM (inactive) in [5].
On to `CC(C)[C@H](CCl)NC(=O)c1cccc(C(=O)N[C@H](CCl)C(C)C)n1` (stereo in doubt), for which the GI50 in assay [1], in assay [2], in assay [4] and in assay [5] was > 100 µM (inactive) throughout.
Consider `O=C(Cc1nc2ccccc2s1)C(=O)Nc1cccc(C(F)(F)F)c1`, for which the GI50 in [1], in assay [2], in [3] and in [4] was > 100 µM (inactive) throughout.
Take `CCOC(=O)C1(C#N)C(c2ccccc2)CC(O)(c2ccc(Cl)cc2)C(C(=O)c2ccc(Cl)cc2)C1c1ccccc1` (stereo not given): the GI50 in assay [1] is > 100 µM (inactive); in assay [2], 67.1 µM (inactive); in [3] it was > 100 µM (inactive); in assay [4], > 100 µM (inactive).
Consider `O=C1C2C3CC(C4C5C=CC(C5)C34)C2C2C3CC(C12)C1C2C=CC(C2)C31` (stereo not given), for which the GI50 in assay [1], in assay [2], in [3], in [4] and in [5] was > 100 µM (inactive) throughout.
In the case of `CCOC(=O)CCc1c(C)c2c(OC)cc(OC)cc2oc1=O`, the results for the GI50 in assay [2], in [3] and in [4] were 41.8 µM (inactive), 32.1 µM (inactive) and > 100 µM (inactive), respectively.
For `O=C(CC1C(=O)Nc2ccccc2[S+]1[O-])Nc1ccccc1` (stereo not given), the GI50 in assay [1], in assay [2], in assay [3], in [4] and in assay [5] was > 100 µM (inactive) in each case.
Regarding `O=C1CN=C(C[N+](=O)[O-])c2ccccc21`, the GI50 in assay [1], in [2], in assay [3] and in assay [5] was > 100 µM (inactive) in each case.
Take `O=C(c1ccccc1)c1c(CC(O)c2ccccc2)n(C(=O)c2ccccc2)c2ccccc12` (stereo not given): the results for the GI50 in assay [1], in assay [2] and in assay [4] were 28 µM (inactive), 43 µM (inactive) and 59 µM (inactive), respectively.
Take `NC(=S)NNC(=O)CCC(=O)Nc1ccc(Cl)cc1Cl`: the GI50 in [1] was 41.7 µM (inactive); in [2], 38.7 µM (inactive); in assay [4], > 100 µM (inactive); in assay [5], > 100 µM (inactive).
Take `O=[N+]([O-])C1C2C=CC(C2)[C@H]1c1ccc(Cl)cc1Cl` (stereo not given in full): the GI50 was 46.5 µM (inactive) in assay [2] and 34.8 µM (inactive) in [4].
`CN1C(=S)CSc2ccccc21`: the GI50 in [1], in assay [2] and in assay [4] was > 100 µM (inactive) throughout.
`CCCCCCCCCCCCOCCCOP(=O)([O-])OCC[N+](C)(C)C`: the GI50 in assay [6] was 9.04 µM (inactive); in [2], 12.9 µM (inactive); in assay [3], 32.7 µM (inactive); in assay [4], 28.2 µM (inactive); in assay [7] it was 11.3 µM (inactive); in assay [8], 23.9 µM (inactive). Further, in [9], the GI50 was > 81.1 µM (inactive).
As to `Clc1cc2ns[s+]c2cc1Cl`, the GI50 in assay [1] was 29.1 µM (inactive); in assay [2], 32.3 µM (inactive); in assay [4] it was 61.4 µM (inactive); in assay [5], 60.3 µM (inactive).
With `O=C(O)c1nc(-c2ccc(Cl)c(Cl)c2)nc2ccc(Cl)cc12`, the figures for the GI50 in assay [2] and in [4] were 44.7 µM (inactive) and > 100 µM (inactive), respectively.
In the case of `COC(=O)CCC(NC(=S)N/N=C(\C)c1nccs1)C(=O)OC` (stereo not given), the GI50 was 22.6 µM (inactive) in assay [1], 21.2 µM (inactive) in assay [3], 50.5 µM (inactive) in assay [4] and 58.2 µM (inactive) in assay [5].
As to `Cc1ccccc1NC(=O)c1nc(S)nc(N)c1-c1ccccc1C`, the GI50 in assay [1], in assay [2], in [3] and in assay [4] was > 100 µM (inactive) in each case.
Regarding `Cc1ccc(Oc2ccc(C(=O)c3cccc(C(=O)c4ccc(Oc5ccc(C)cc5)cc4)n3)cc2)cc1`, the GI50 in [1], in [2] and in [3] was > 100 µM (inactive) each time.
For `CC(CN1CCN(CC(C)Nc2ccnc3cc(Cl)ccc23)CC1)Nc1ccnc2cc(Cl)ccc12` (stereo not given), the GI50 is 20.2 µM (inactive) in assay [1], 16.3 µM (inactive) in assay [2], 21.8 µM (inactive) in assay [4] and 12.4 µM (inactive) in [5].
As for `O=C1C(Cl)C(c2ccccc2Cl)N1n1cnc2ccccc2c1=O` (stereo not given), the GI50 is 16.4 µM (inactive) in assay [1], 26 µM (inactive) in assay [2] and > 100 µM (inactive) in assay [4].
As to `CSc1ccc2c(cc1=O)[C@@H](NC(=O)c1cccc([N+](=O)[O-])c1)CCc1cc(O)c(O)c(O)c1-2`, the GI50 was 24.4 µM (inactive) in [1]; 32 µM (inactive) in assay [2]; > 100 µM (inactive) in assay [3]; 22.1 µM (inactive) in [4]; 36.1 µM (inactive) in assay [5].
Take `CO[C@H]1C[C@H](O[C@H]2CC[C@@]3(C)[C@H](CC[C@@H]4[C@@H]3CC[C@]3(C)[C@@H](C5=CC(=O)OC5)CC[C@]43O)C2)O[C@H](C)[C@H]1O`: the GI50 in [6] is < 0.01 µM (active); in assay [7], 0.0498 µM (active); in [8], < 0.0111 µM (active); in assay [9], < 0.01 µM (active).
